The text below walks through data of US20240293425A1, “BZD-1 AS A CHEMO[…] CANCER” (University of Cincinnati, priority 2021, published 2024).

Values after ≈ are worked out from the molar mass of the structure shown.

One series concerns H1792 xenograft tumor. Description: H1792 flank xenograft dose response. It is filed as in vivo, NOD-SCID mice. The procedure: NOD-SCID mice (3 mice/group) were implanted with 10^6 H1792 cells s.c. in both flanks. When the tumors were palpable (day 11 post implantation), treatment was started and consisted of daily i.p. injections of vehicle (DMSO) or BZD-1 drug dissolved in DMSO for 7 days. Tumor size was measured every other day using a caliper. Tumor volume was calculated as follows: […]
At day 46 post tumor implantation, mice were euthanized following institutional IACUC procedures. Tumors from both flanks were resected, weighed, and average tumor mass for each group was calculated, plotted, and photographed.

Series [1] in a line: Stability of co-solvent formulation at room temperature. It is filed as physicochemical.
The subject of series [2] is H1792 human lung cancer cells. Description: MTS proliferation assay, BZD-1 alone. It is filed as cell-based. How it is done: 10^3 H1792 cells/well in 100 uL of medium were plated in a 96 well plate and allowed to attach for 24 hrs. The next day, BZD-1 (stock, 40 mM in DMSO) was first diluted to 40 μM in fresh cell culture medium, then serially 2-fold diluted. Medium on cells was then carefully aspirated and replaced with 100 μL of vehicle (DMSO)/drug containing medium, with 5 replicated for each control/drug dilution. Cells were returned to the incubator for 48 hours.
For MTS Assay, medium was carefully aspirated and replaced with 100 μL of phenol red free medium. Then 20 μL of MTS reagent (Cell Titer 96 Aqueous Non-Radioactive Cell Proliferation Assay reagent—Promega) was added to each well. The plate was returned to incubator for 1 hour, then OD acquired at 490 nm in a plate reader. OD values were then analyzed, and the graph obtained using GraphPad Prism.

A short description of series [3]: Metabolic stability in human liver microsomes. Conditions: within 1 hr. For orientation: Liver microsomes are vesicles of endoplasmic reticulum, rich in cytochrome P450 enzymes.
The nature of series [4]: Pharmacokinetics, brain penetration.
In series [5] the test system is H1792 human lung cancer cells. Nature of the series: MTS proliferation assay, DTX + 2.5 μM BZD-1. Type of series: cell-based. How it is done: 10^3 H1792 cells/well in 100 μL of medium were plated in a 96 well plate and allowed to attach for 24 hrs. The next day, large volume of fresh medium containing 2.5 μM BZD-1 was prepared from 40 mM BZD-1 stock in DMSO. For Docetaxel (DTX) dilutions, either fresh medium was used for DTX only or 2.5 μM BZD-1 containing medium was used for DTX+2.5 μM BZD-1 treatment. Medium on cells was then aspirated and replaced by 100 μL of vehicle (DMSO)/drug containing media, with 5 replicated for each control/drug dilution. Cells were returned to the incubator for 48 hours.
For MTS Assay, medium was aspirated and replaced by 100 μL of phenol red free medium. Then 20 μL of MTS reagent (Cell Titer 96 Aqueous Non-Radioactive Cell Proliferation Assay reagent—Promega) was added to each well. The plate was returned to incubator for 1 hour, then OD acquired at 490 nm in a plate reader. OD values were then analyzed, and the graph obtained using GraphPad Prism.
10^3 H1792 cells/well in 100 μL of medium were plated in a 96 well plate and allowed to attach for 24 hrs. […]
For MTS Assay, medium was aspirated and replaced with 100 μL of phenol red free medium. […] The plate was returned to the incubator for 1 hour, then OD acquired at 490 nm in a plate reader. OD values were then analyzed, and the graph obtained using GraphPad Prism.
On the technique in general: Tetrazolium assays rely on reduction of a dye to a coloured formazan, in cell work by metabolically active cells.

In the next series the test system is H1792 cells. Description: Clonogenic assay, BZD-1 with or without 0.5 nM DTX. Type of series: cell-based, human. Conditions: BZD-1 + 0.5 nM DTX, 12 days. The procedure: 300 H1792 cells/well in 3 mL of medium were plated in a 6 well plate and allowed to attach for 36 hrs. A large volume of fresh medium containing 0.5 nM Docetaxel (DTX) was prepared from 1 mM stock in DMSO. For BZD-1 dilution, either fresh medium or +0.5 nM DTX containing medium was used. Medium on cells was then aspirated and replaced by 3 mL of vehicle (DMSO)/Drug containing media in triplicate for each control/drug dilution. Cells were returned to the incubator for 12 days. For staining, medium was aspirated, cells were washed 1× with PBS and fixed 15 minutes with methanol at room temperature. Methanol was then removed, and crystal violet staining solution added to cells and incubated 30 minutes at room temperature. Plates were then washed extensively with tap water, dried and pictured.

Series [6] deals with unmethylated GBM lines BT142-GFP and G43. Nature of the series: Spheroid assay. Type of series: cell-based. Conditions: BZD-1 + TMZ; BT142-GFP and G43 spheroids; qualitative. The procedure:
Spheroid assays were carried out using two unmethylated GBM lines: BT142-GFP (FIG. 3A) and G43 (FIG. 3B) to qualitatively assess the effect of BZD-1+TMZ.

A short description of series [7]: Solubility in co-solvent injectable formulation. Conditions: co-solvent based injectable formulation, aqueous with cosolvent or surfactant or cyclodextrin.
Series [8] deals with methylated and unmethylated GBM cells. Description: In vitro cytotoxicity of GBM cells, BZD-1 and TMZ single or combined. Type of series: cell-based.
The test system of a further series is rats. Description: Visible adverse effects after single dose i.p. Conditions: 12 hrs after single dose i.p., co-solvent formulation.
[9] abbreviates: daily i.p. for 7 days, NOD-SCID mice.

A word on the IC50: it is the concentration that inhibits the measured activity by half. Higher therefore signals lower potency. As a reminder, the solubility is the dissolved amount per volume that the medium holds. A high value points to a readily soluble substance. Regarding `C#Cc1ccc2c(c1)C(c1ccccc1F)=NCC(=O)N2C` [BZD-1, 7-ethynyl-5-(2-fluorophenyl)-1-methyl-1,3-dihydro-2H-benzo[e][1,4]diazepin-2-one], in the series with H1792 xenograft tumor (setting [9]), the Most effective dose came out at 2.5 mg/kg and the “Tumor volume compared to vehicle” value is “reduced tumor volume”. For the same molecule, the “Sedation in the animal model” value in the series with H1792 xenograft tumor (doses higher than 2.5 mg/kg) is listed as “sedating”. In addition, the “Stable at room temperature” value in series [1] is reported as “up to 6 months”. Further, the “Proliferation of H1792 cells” value in series [2] (48 hours, in vitro) is “inhibits proliferation”. In addition, the IC50 in series [2] (Homo sapiens, NCI-H1792, 48 hours) was 4.5 to 6 µM. Moreover, the “Breakdown products in human liver microsomes” value in [3] is on record as “no breakdown products were found”. The “Time of penetration into the brain” value in [4] (brain) was at most 5 min. The “Accumulation in brain extracellular fluid” value in [4] (brain extracellular fluid) worked out at 161.3 ng/mL. In series [5] (2.5 μM BZD-1 + DTX, 48 hours, MTS), the “Effect on docetaxel cytotoxicity” value is recorded as “potentiates the cytotoxic effect of docetaxel”. In addition, the “Combination Index (CI)” value in series [5] (BZD-1 combined with DTX, H1792 cell growth in vitro) was 0.6. The “Clonogenic growth, combination with docetaxel” value with H1792 cells is “work synergistically”. In addition, the “Spheroid response to combination therapy” value in series [6] is given as “significant disaggregation”. Moreover, the solubility in [7] was 10000 µg/mL (≈ 34.2 mM). Moreover, in [8] (BZD-1 + TMZ, unmethylated GBM cell lines), the “Effect of combined therapy on TMZ resistance” value was “overcomes TMZ resistance”. For the same molecule, the “Synergy of BZD-1 and TMZ (Chou-Talay Combination Index Equation)” value in series [8] (BZD-1 in combination with TMZ, GBM cells) is “act synergistically”. Moreover, the Visible adverse effects entry in the series with rats is recorded as “no visible adverse effects”.
